Experimental data taken from patent publication US20060069132A1, “Azolecarboxamide herbicides” (priority 2004, published 2006).

Tests used:
[1] = test system: Surinam grass; assay: Test B pre-/postemergence herbicide test; format: in vivo, Urochloa decumbens; details: for Surinam Grass plant response rating (0 to 100 scale) / Plant response rating, Surinam Grass: 0 = no effect, 100 = complete control, preemergence; for Surinam Grass plant response rating: postemergence
Procedure, shortened: (§1)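 Visual rating, 0 (no effect) to 100 (complete control), versus untreated controls after 13–15 d in greenhouse. Pre- and postemergence applications (postemergence plants 2–18 cm, 1–4 leaves); flooded paddy arm at 2-leaf stage. Compounds in non-phytotoxic solvent plus surfactant.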

[2] = test system: morningglory; assay: Test B pre-/postemergence herbicide test; format: in vivo, Ipomoea coccinea; details: for Morningglory plant response rating (0 to 100 scale) / Plant response rating, Morningglory: 0 = no effect, 100 = complete control, preemergence; for Morningglory plant response rating: postemergence
Procedure, shortened: (§2)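 Seeds were planted and treated preemergence with compounds formulated in a non-phytotoxic solvent mixture containing surfactant, while plants at the 1- to 4-leaf stage (2 to 18 cm) received postemergence sprays. Flooded paddy plants were grown to the 2-leaf stage. After 13 to 15 days in a greenhouse, injury was visually rated 0–100 against untreated controls.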

[3] = test system: ducksalad; assay: Test B flooded paddy test; format: in vivo, Heteranthera limosa; details: 1000 g ai/ha, scale 0 to 100 (0 no effect, 100 complete control)
Procedure, shortened: (§3)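 Postemergence plants were sprayed with formulated test chemicals at 2 to 18 cm height (1- to 4-leaf stage); paddy species were grown to the 2-leaf stage. After 13 to 15 days in a greenhouse, injury was rated visually against untreated controls on a 0–100 scale (0 = no effect, 100 = complete control).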

[4] = test system: rice; assay: Test B pre-/postemergence herbicide test; format: in vivo, Oryza sativa; details: 0 = no effect, 100 = complete control, preemergence; for Rice plant response rating (0 to 100 scale): 125 g ai/ha; for Plant response rating, Rice: 500 g ai/ha, visual rating
Procedure, shortened: as §1

[5] = test system: wild oat; assay: Test B postemergence herbicide test; format: in vivo, Avena fatua; details: postemergence
Procedure, shortened: (§4)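 Greenhouse test; postemergence application to plants at 1–4 leaves (2–18 cm); paddy species at 2 leaves; evaluated visually vs controls at 13–15 days; scale 0–100 (100 = complete control).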

[6] = test system: barnyardgrass; assay: Test B pre-/postemergence herbicide test; format: in vivo, Echinochloa crus-galli; details: for Barnyardgrass plant response rating (0 to 100 scale) / Plant response rating, Barnyardgrass: 0 = no effect, 100 = complete control, preemergence; for Plant response rating, Barnyardgrass / Barnyardgrass plant response rating: visual rating; for Barnyardgrass plant response rating: postemergence, scale 0 (no effect) to 100 (complete control)
Procedure, shortened: as §2

[7] = test system: large crabgrass; assay: Test B pre-/postemergence herbicide test; format: in vivo, Digitaria sanguinalis; details: for Crabgrass, Large plant response rating (0 to 100 scale) / Plant response rating, Crabgrass, Large: 0 = no effect, 100 = complete control, preemergence; for Crabgrass, Large plant response rating: postemergence
Procedure, shortened: as §1

[8] = test system: rice; assay: Test B flooded paddy test; format: in vivo, Oryza sativa; details: 1000 g ai/ha, scale 0 to 100 (0 no effect, 100 complete control)
Procedure, shortened: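 Read-out: visual comparison with controls, scored 0 to 100, where 100 means complete control and 0 no effect. Formulated chemicals were applied postemergence to plants 2–18 cm tall (1- to 4-leaf), or to flooded-paddy plants at the 2-leaf stage, then held 13 to 15 days under glass.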

[9] = test system: barnyardgrass; assay: Test B flooded paddy test; format: in vivo, Echinochloa crus-galli; details: 1000 g ai/ha, scale 0 to 100 (0 no effect, 100 complete control)
Procedure, shortened: as §3

[10] = test system: pigweed; assay: Test B pre-/postemergence herbicide test; format: in vivo, Amaranthus retroflexus; details: for Pigweed plant response rating (0 to 100 scale) / Plant response rating, Pigweed: 0 = no effect, 100 = complete control, preemergence; for Pigweed plant response rating: postemergence
Procedure, shortened: as §1

[11] = test system: wheat; assay: Test B postemergence herbicide test; format: in vivo, Triticum aestivum; design: key to Wheat plant response rating: 0 = no effect, 100 = complete control; details: postemergence
Procedure, shortened: as §4

[12] = test system: blackgrass; assay: Test B postemergence herbicide test; format: in vivo, Alopecurus myosuroides; details: postemergence, visual rating, scale 0 (no effect) to 100 (complete control)
Procedure, shortened: as §3

[13] = test system: cocklebur; assay: Test B pre-/postemergence herbicide test; format: in vivo, Xanthium strumarium; details: for Cocklebur plant response rating (0 to 100 scale) / Plant response rating, Cocklebur: 0 = no effect, 100 = complete control, preemergence; for Plant response rating, Cocklebur / Cocklebur plant response rating: visual rating; for Cocklebur plant response rating: postemergence, scale 0 (no effect) to 100 (complete control)
Procedure, shortened: as §2

[14] = test system: small flower umbrella sedge; assay: Test B flooded paddy test; format: in vivo, Cyperus difformis; details: 1000 g ai/ha, scale 0 to 100 (0 no effect, 100 complete control)
Procedure, shortened: as §3

[15] = test system: velvetleaf; assay: Test B pre-/postemergence herbicide test; format: in vivo, Abutilon theophrasti; details: for Velvetleaf plant response rating: postemergence
Procedure, shortened: as §1

[16] = test system: lambsquarters; assay: Test B pre-/postemergence herbicide test; format: in vivo, Chenopodium album; details: for Lambsquarters plant response rating (0 to 100 scale) / Plant response rating, Lambsquarters: 0 = no effect, 100 = complete control, preemergence; for Lambsquarters plant response rating: postemergence
Procedure, shortened: as §1

[17] = test system: giant foxtail; assay: Test B pre-/postemergence herbicide test; format: in vivo, Setaria faberi; details: for Foxtail, Giant plant response rating (0 to 100 scale) / Plant response rating, Foxtail, Giant: 0 = no effect, 100 = complete control, preemergence; for Foxtail, Giant plant response rating: postemergence
Procedure, shortened: as §1

[18] = test system: corn; assay: Test B pre-/postemergence herbicide test; format: in vivo, Zea mays; details: for Corn plant response rating: postemergence
Procedure, shortened: as §1

[19] = 125 g ai/ha, visual rating, scale 0 (no effect) to 100 (complete control)
[20] = 500 g ai/ha, scale 0 to 100, 0 is no effect, 100 is complete control
[21] = 125 g ai/ha, 0 = no effect, 100 = complete control, preemergence
[22] = 500 g ai/ha, visual rating, 0 = no effect, 100 = complete control, preemergence
[23] = 500 g ai/ha, visual rating, scale 0 (no effect) to 100 (complete control)

CCc1nn(C(C)(C)C)cc1C(=O)Nc1ccc(F)c(C(=O)N(CC)CC)c1 [Compound 240]
50: Pigweed plant response rating [10, 20] | Lambsquarters plant response rating [16, 20]
100: Plant response rating, Crabgrass, Large ([7]; 500 g ai/ha, visual rating) | Plant response rating, Pigweed ([10]; 500 g ai/ha, visual rating)
60: Sedge, Umbrella plant response rating [14]
10: Blackgrass plant response rating ([12]; 500 g ai/ha) | Velvetleaf plant response rating [15, 20] | Corn plant response rating [18, 20]
70: Plant response rating, Barnyardgrass ([6]; 500 g ai/ha)
30: Morningglory plant response rating [2, 20]
20: Plant response rating, Surinam Grass ([1]; 500 g ai/ha, visual rating) | Surinam Grass plant response rating [1, 20] | Morningglory plant response rating [2, 19] | Crabgrass, Large plant response rating (0 to 100 scale) ([7]; 125 g ai/ha) | Crabgrass, Large plant response rating [7, 20] | Wheat plant response rating [11, 20] | Cocklebur plant response rating ([13]; 500 g ai/ha) | Lambsquarters plant response rating [16, 19]
80: Plant response rating, Lambsquarters ([16]; 500 g ai/ha, visual rating) | Plant response rating, Foxtail, Giant ([17]; 500 g ai/ha, visual rating)
0: Surinam Grass plant response rating (0 to 100 scale) ([1]; 125 g ai/ha) | Surinam Grass plant response rating [1, 19] | Morningglory plant response rating (0 to 100 scale) ([2]; 125 g ai/ha) | Plant response rating, Morningglory ([2]; 500 g ai/ha, visual rating) | Ducksalad plant response rating [3] | Rice plant response rating (0 to 100 scale) [4] | Plant response rating, Rice [4] | Oat, Wild plant response rating [5, 19] | Oat, Wild plant response rating [5, 20] | Barnyardgrass plant response rating (0 to 100 scale) ([6]; 125 g ai/ha) | Barnyardgrass plant response rating ([6]; 125 g ai/ha) | Barnyardgrass plant response rating ([6]; 500 g ai/ha) | Crabgrass, Large plant response rating [7, 19] | Rice plant response rating [8] | Barnyardgrass plant response rating [9] | Pigweed plant response rating (0 to 100 scale) ([10]; 125 g ai/ha) | Pigweed plant response rating [10, 19] | Wheat plant response rating [11, 19] | Blackgrass plant response rating ([12]; 125 g ai/ha) | Cocklebur plant response rating (0 to 100 scale) ([13]; 125 g ai/ha) | Plant response rating, Cocklebur ([13]; 500 g ai/ha) | Cocklebur plant response rating ([13]; 125 g ai/ha) | Velvetleaf plant response rating (0 to 100 scale) [15, 21] | Velvetleaf plant response rating [15, 19] | Lambsquarters plant response rating (0 to 100 scale) ([16]; 125 g ai/ha) | Foxtail, Giant plant response rating (0 to 100 scale) ([17]; 125 g ai/ha) | Foxtail, Giant plant response rating [17, 19] | Foxtail, Giant plant response rating [17, 20] | Corn plant response rating (0 to 100 scale) [18, 21] | Plant response rating, Corn [18, 22] | Corn plant response rating [18, 19]

CCc1cn(C(C)(C)C)nc1C(=O)Nc1cc(C(=O)N(CC)CC)ccn1 [Compound 234]
50: Plant response rating, Lambsquarters ([16]; 500 g ai/ha, visual rating)
0: Surinam Grass plant response rating (0 to 100 scale) ([1]; 125 g ai/ha) | Plant response rating, Surinam Grass ([1]; 500 g ai/ha, visual rating) | Surinam Grass plant response rating [1, 19] | Morningglory plant response rating (0 to 100 scale) ([2]; 125 g ai/ha) | Plant response rating, Morningglory ([2]; 500 g ai/ha, visual rating) | Ducksalad plant response rating [3] | Rice plant response rating (0 to 100 scale) [4] | Plant response rating, Rice [4] | Barnyardgrass plant response rating (0 to 100 scale) ([6]; 125 g ai/ha) | Plant response rating, Barnyardgrass ([6]; 500 g ai/ha) | Crabgrass, Large plant response rating (0 to 100 scale) ([7]; 125 g ai/ha) | Rice plant response rating [8] | Barnyardgrass plant response rating [9] | Pigweed plant response rating (0 to 100 scale) ([10]; 125 g ai/ha) | Wheat plant response rating [11, 19] | Blackgrass plant response rating ([12]; 125 g ai/ha) | Blackgrass plant response rating ([12]; 500 g ai/ha) | Cocklebur plant response rating (0 to 100 scale) ([13]; 125 g ai/ha) | Plant response rating, Cocklebur ([13]; 500 g ai/ha) | Sedge, Umbrella plant response rating [14] | Velvetleaf plant response rating (0 to 100 scale) [15, 21] | Plant response rating, Velvetleaf [15, 22] | Lambsquarters plant response rating (0 to 100 scale) ([16]; 125 g ai/ha) | Foxtail, Giant plant response rating (0 to 100 scale) ([17]; 125 g ai/ha) | Foxtail, Giant plant response rating [17, 19] | Corn plant response rating (0 to 100 scale) [18, 21] | Corn plant response rating [18, 19]
70: Morningglory plant response rating [2, 23]
20: Morningglory plant response rating [2, 19] | Oat, Wild plant response rating [5, 19] | Oat, Wild plant response rating [5, 23] | Crabgrass, Large plant response rating [7, 23] | Cocklebur plant response rating ([13]; 500 g ai/ha) | Velvetleaf plant response rating [15, 19] | Lambsquarters plant response rating [16, 19] | Corn plant response rating [18, 23]
10: Surinam Grass plant response rating [1, 23] | Crabgrass, Large plant response rating [7, 19] | Wheat plant response rating [11, 23] | Cocklebur plant response rating ([13]; 125 g ai/ha) | Plant response rating, Foxtail, Giant ([17]; 500 g ai/ha, visual rating)
40: Plant response rating, Crabgrass, Large ([7]; 500 g ai/ha, visual rating) | Plant response rating, Pigweed ([10]; 500 g ai/ha, visual rating) | Lambsquarters plant response rating [16, 23]
30: Pigweed plant response rating [10, 19] | Pigweed plant response rating [10, 23] | Velvetleaf plant response rating [15, 23] | Foxtail, Giant plant response rating [17, 23]
